In patent US7279600B2, “Hydroxy-biphenyl-carbaldehyde oxime derivatives and their use as estrogenic agents” (Wyeth, priority 2003, dated 2007):
pIC50: −log10 of the molar value. Where a name gives a salt, the structure may show the parent alone.

Experiments:
ERβ = ERβ (Homo sapiens, UniProt Q92731); assay: biochemical
ERα = ERα (Homo sapiens, UniProt P03372); assay: biochemical
Chain of ERα (P03372 whole entry): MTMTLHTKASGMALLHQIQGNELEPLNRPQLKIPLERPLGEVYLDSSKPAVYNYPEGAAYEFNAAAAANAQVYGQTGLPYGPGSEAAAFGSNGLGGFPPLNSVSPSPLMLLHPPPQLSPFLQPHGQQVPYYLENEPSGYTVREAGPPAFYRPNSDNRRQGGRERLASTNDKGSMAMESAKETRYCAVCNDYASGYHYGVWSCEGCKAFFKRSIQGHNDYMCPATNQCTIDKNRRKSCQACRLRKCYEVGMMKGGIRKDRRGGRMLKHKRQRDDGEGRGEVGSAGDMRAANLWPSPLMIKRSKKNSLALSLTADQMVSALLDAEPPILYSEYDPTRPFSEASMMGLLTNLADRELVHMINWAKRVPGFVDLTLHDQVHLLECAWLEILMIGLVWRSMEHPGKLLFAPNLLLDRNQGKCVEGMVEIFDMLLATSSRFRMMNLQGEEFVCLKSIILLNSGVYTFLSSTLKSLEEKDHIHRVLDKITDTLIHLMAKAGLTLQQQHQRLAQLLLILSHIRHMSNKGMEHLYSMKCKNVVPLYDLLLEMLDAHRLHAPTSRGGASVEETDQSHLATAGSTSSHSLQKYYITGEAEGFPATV

Chain of ERβ (Q92731 whole entry, species assumed): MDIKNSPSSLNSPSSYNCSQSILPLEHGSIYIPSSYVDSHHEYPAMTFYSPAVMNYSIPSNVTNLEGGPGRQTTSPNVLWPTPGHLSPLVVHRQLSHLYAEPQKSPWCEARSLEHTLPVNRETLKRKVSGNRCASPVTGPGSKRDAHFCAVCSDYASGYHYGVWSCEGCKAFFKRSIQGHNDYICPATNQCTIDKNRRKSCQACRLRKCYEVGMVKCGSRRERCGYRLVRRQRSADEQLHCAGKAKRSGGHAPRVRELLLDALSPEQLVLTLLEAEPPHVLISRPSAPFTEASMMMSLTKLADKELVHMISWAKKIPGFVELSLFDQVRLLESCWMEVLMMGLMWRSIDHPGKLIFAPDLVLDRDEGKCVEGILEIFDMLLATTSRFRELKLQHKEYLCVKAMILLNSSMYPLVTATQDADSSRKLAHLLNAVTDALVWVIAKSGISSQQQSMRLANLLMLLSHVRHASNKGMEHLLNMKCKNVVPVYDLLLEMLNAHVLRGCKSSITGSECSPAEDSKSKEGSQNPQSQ

Row | Compound | melting point [°C] | pIC50 (ERβ) | pIC50 (ERα)
1 | O/N=C/c1ccc(-c2ccc(O)c(F)c2)c(Cl)c1Cl (as salt: salt) [Example 57, 2,3-Dichloro-3′-fluoro-4′-hydroxy-1,1′-biphenyl-4-carbaldehyde oxime] | 225 to 227 | – | –
2 | O/N=C/c1ccc(-c2ccc(O)cc2)cc1F [Example 33, 3-Fluoro-4′-hydroxy-1,1′-biphenyl-4-carbaldehyde oxime] | – | 6.79 | 5.76
3 | O/N=C/c1ccc(-c2ccc(O)cc2)c(Cl)c1 [Example 34, 2-Chloro-4′-hydroxy-1,1′-biphenyl-4-carbaldehyde oxime] | 178 to 179 | 7.01 | 6.40
4 | O/N=C/c1ccc(-c2cc(F)c(O)c(F)c2)cc1Cl [Example 38, 3-Chloro-3′, 5′-fluoro-4′-hydroxy-1,1′-biphenyl-4-carbaldehyde oxime] | 216 to 219 | 6.57 | < 5.15
5 | O/N=C/c1ccc(-c2ccc(O)cc2)c(F)c1 [Example 32, 2-Fluoro-4′-hydroxy-1,1′-biphenyl-4-carbaldehyde oxime] | 178 to 180 | 6.38 | 5.46
6 | O/N=C/c1ccc(-c2ccc(O)cc2)cc1Cl [Example 31, 3-Chloro-4′-hydroxy[1,1′-biphenyl]-4-carbaldehyde oxime] | 187 to 189 | 7.07 | 5.81
7 | O/N=C/c1ccc(-c2ccc(O)cc2)c(Cl)c1Cl [Example 56, 2,3-Dichloro-4′-hydroxy-1,1′-biphenyl-4-carbaldehyde oxime] | 208 to 210 | 7.31 | 6.07
8 | O/N=C/c1ccc(-c2ccc(O)cc2)cc1 [Example 30, 4′-Hydroxy[1,1′-biphenyl]-4-carbaldehyde oxime] | 207 to 210 | 5.42 | < 5.30
9 | Cc1cc(O)ccc1-c1ccc(/C=N/O)c(Cl)c1 [Example 39, 3-Chloro-4′-hydroxy-2′-methyl-1,1′-biphenyl-4-carbaldehyde oxime] | 169 to 171 | 7.57 | 6.76
10 | O/N=C/c1ccc(-c2ccc(O)c(F)c2)c(Cl)c1Cl [Example 57, 2,3-Dichloro-3′-fluoro-4′-hydroxy-1,1′-biphenyl-4-carbaldehyde oxime] | – | 7.09 | 5.71
11 | COc1cc(-c2ccc(O)cc2)ccc1/C=N/O [Example 35, 4′-Hydroxy-3-methoxy-1,1′-biphenyl-4-carbaldehyde oxime] | 228 to 230 | 5.98 | 5.10
12 | O/N=C/c1ccc(-c2ccc(O)c(F)c2)cc1Cl [Example 37, 3-Chloro-3′-fluoro-4′-hydroxy-1,1′-biphenyl-4-carbaldehyde oxime] | 198 to 200 | 7.27 | 5.72
13 | Cc1cc(-c2ccc(O)cc2)ccc1/C=N/O [Example 29, 4′-Hydroxy-3-methyl[1,1′-biphenyl]-4-carbaldehyde oxime] | 195 to 197 | 6.79 | 5.50
14 | O/N=C/c1c(Cl)cc(-c2ccc(O)c(F)c2)cc1Cl [Example 55, 3,5-Dichloro-3′-fluoro-4′-hydroxy-1,1′-biphenyl-4-carbaldehyde oxime] | 185 to 190 | – | –
15 | Cc1cc(/C=N/O)ccc1-c1ccc(O)cc1 [Example 36, 4′-Hydroxy-2-methyl-1,1′-biphenyl-4-carbaldehyde oxime] | 169 to 171 | 6.23 | 5.55
16 | O/N=C/c1c(Cl)cc(-c2ccc(O)cc2)cc1Cl [Example 54, 3,5-Dichloro-4′-hydroxy-1,1′-biphenyl-4-carbaldehyde oxime] | 183 to 186 | 8.10 | 7.19
